Assay results from patent US10596166B2, “Combination composition comprising huperzine” (priority 2015, dated 2020).

System: nerve/muscle co-culture injured by glutamate
Experiment: glutamate toxicity on nerve/muscle co-culture (NMJ area, neurite network)
Type: cell-based, human muscle, rat spinal cord explants
Conditions: glutamate 60 μM, 20 min
Description: Human muscle (promocell, Batch: 3061107) was prepared according to a previously described method from portions of a biopsy from a healthy subject (Braun et al., (1996) J. Neurol Sci. 136: 17-23). The human muscle cell line was established from dissociated cells (21 000 cells per wells), plated in gelatin-coated 0.1% (Sigma, Batch: 051M0012V) in water on 48 wells plate (greiner, Batch: E13111ME) and grows in a proliferation medium consisting of mix of 62% of MEM medium (PAN, Batch: 2761113) and 25% of M199 medium (PAN, Batch: 6720314) supplemented with glutamine 2 mM (PAN, Batch: 8150713), human insulin 10 μg/ml (PAN, Batch: 1481013), Human recombinant Epidermal growth factor 10 ng/ml (EGF, GIBCO, Batch: 1291552A), human recombinant Fibroblast growth factor basic 2 ng/ml (bFGF, PAN, Batch: H080113), foetal calf serum 10% (FCS, GIBCO, Batch: 41Q7218K) and 2% of Penicillin 10.000 U/ml and Streptomycin 10.000 μg/ml (PS, PAN, Batch: 1451013). The medium was changed every 2 days. Five days after the start of culture, immediately after satellite cell fusion, whole transverse slices of 13-day-old rat Wistar embryos (Janvier, France) spinal cords with 4 dorsal root ganglia (DRG) attached are placed on the muscle monolayer (one explant per well in the central area). DRG are necessary to achieve a good ratio of innervation. Innervated cultures were maintained in a mixed (67%/25%) medium composed of MEM and medium 199, supplemented with 5% FCS, insulin 5 μg/ml, glutamine 2 mM and 2% PS. After 24 h of co-culture, neurites were observed growing out of the spinal cord explants. These neurites made contacts with myotubes and induced the first contractions after ˜8 days. Quickly thereafter, innervated muscle fibres located in the proximity to the spinal cord explants, were virtually continuously contracting. Innervated fibres were morphologically and spatially distinct from the non-innervated ones and could easily be distinguished from them.
On day 27, co-cultures were pre-incubated 1 hour before glutamate application with test compounds (different concentrations) tested alone or in a mixture of the 3 compounds.
One hour after HA, CA or FA Compounds and mixture (HA/CA/FA) incubation, glutamate was added to a final concentration of 60 μM diluted in control medium still in presence of 3 compounds or mix of compounds for 20 min.
After 20 min injuries, co-cultures were washed and individual test compounds and mixture were added for an additional 48 h.
After 48 h, the cocultures were prepared for end points evaluation (see below).
After 48H of intoxication, cells were incubated with 500 nM α-bungarotoxin coupled with Alexa 488 (Molecular probes, Batch: 1434893) during 15 min in culture innervations medium at 37° C. to detect NMJ. After 2 washing in PBS (Pan Biotech, Batch: 7560414), cells were fixed by a solution of 4% of paraformaldehyde (Sigma Aldrich, Batch: SLBF7274V) in PBS, pH=7.3 for 20 min at room temperature.
The cells were washed 2 times in PBS and then permeabilized and non-specific sites were blocked with a solution of PBS containing 0.1% of saponin (Sigma-Aldrich, Batch: BCBJ8417V) and 1%0 FCS (Gibco, Batch: 41F0423K) for 15 min at room temperature, co-cultures were incubated with a mouse monoclonal anti-neurofilament 200 KD antibody (NF, Sigma Aldrich, Batch: 053M4756) at the dilution of 1/400 in PBS containing 1% FCS, 0.1% saponin, for 2 h at room temperature. Antibody against NF stained the axon of motor neuron. […] Nuclei of neurons were labeled by Hoechst solution, a nuclear fluorescent marker at […] in the same solution (Hoechst solution, SIGMA, batch: 011M4004V).
The NMJ mean size (area) of NMJs and the total length of neurite were assessed under the experimental conditions described above (see Combes et al., 2015). For each condition, 20 pictures per well were taken in the center area using ImageXpress (Molecular device) with 10× magnification. All images were taken under the same conditions. […]

O=C(O)/C=C/c1ccc(O)c(O)c1 [CA, caffeic acid]
neurite network (area of innervation) (CA added 1 h before glutamate): slight protection | neurite network (area of innervation) (CA highest dose (5 nM)): significance was observed | NMJ area (mean size) (CA low concentrations): unable to protect | NMJ area (mean size) (only at the highest dose (5 nM)): able to protect

COc1cc(/C=C/C(=O)O)ccc1O [FA, ferulic acid]
NMJ area (mean size) (FA lowest and highest concentrations): inactive | NMJ area (mean size) (FA only at 100 nM): able to protect | neurite network (area of innervation) (highest dose tested (10 μM)): moderate effect

C/C=C1\[C@H]2C=C(C)C[C@]1(N)c1ccc(=O)[nH]c1C2 [HA, huperzine A, reference compound]
NMJ area (mean size) (HA 100 nM): significance was observed | neurite network (area of innervation) (HA 100 nM, without reaching the significance): slight neuroprotection | NMJ area (mean size) (HA, all concentrations tested): slight protective effect | neurite network (area of innervation) (HA, all concentrations tested): no neuronal protective effect
